# “Also recorded” adds a separate entry of the source.
# Assays:
# anaesthetized rat [1] = assay: LPS-induced hyporeactivity to exogenous norepinephrine in the anaesthetized rat; type: in vivo, Male Sprague Dawley rats
# Description: (§1) Anaesthetized Rat Model. Male Sprague Dawley rats (250-300 g) were anaesthetized with inactin (100 mg/Kg intraperitoneally). The trachea was cannulated to facilitate respiration and body temperature was maintained at 37° C. by means of a heating pad. The left femoral vein was cannulated for administration of drugs. The left femoral artery was cannulated and connected to a pressure transducer to allow for the monitoring of blood pressure. Lipopolysaccharide from E. coli (LPS; 4 mg/Kg, serotype 0111:B4) was administered as a bolus intravenous injection at a volume of 0.3 ml. Control animals received saline at the same volume and by the same route. In experiments involving blood samples, such blood samples were withdrawn from the arterial cannula.
# Injection of E. coli lipopolysaccharide (LPS) to rats leads to the development of hyporeactivity to exogeneously administered norepinephrine which typically occurs in the first two hours. Male Sprague Dawley rats (250-300 g, number in group) were anaesthetized and prepared according to the methods of Example 1. Increasing dosages of norepinephrine (0.1, 0.5 and 1 mg/Kg) were given as intravenous bolus injections. Animals in a control group received saline at the same volume and by the same route. The left femoral artery was cannulated and connected to a pressure transducer to allow for the monitoring of blood pressure during the experiment. The change in the blood pressure of the animals was compared to the blood pressure of animals in the control group. […] Pressor responses to norepinephrine in rats not treated with LPS were unaffected by the SOD mimetic M40403 (FIG. 2; n=6).
# Injection of E. coli lipopolysaccharide (LPS) to rats leads to the development of hyporeactivity to exogeneously administered norepinephrine which typically occurs in the first two hours. Male Sprague Dawley rats (250-300 g, number in group) were anaesthetised and prepared according to the methods of Example 1. Increasing dosages of norepinephrine (0.1, 0.5 and 1 mg/Kg) were given as intravenous bolus injections. Animals in a control group received saline at the same volume and by the same route. The left femoral artery was cannulated and connected to a pressure transducer to allow for the monitoring of blood pressure during the experiment. The change in the blood pressure of the animals was compared to the blood pressure of animals in the control group.
# anaesthetized rat [2] = assay: LPS-induced hypotension and mortality in the anaesthetized rat; type: in vivo, Male Sprague Dawley rats
# Description: as §1
# Intravenous injection of LPS (4 mg/Kg) in rats led to a profound fall in blood pressure associated with a high mortality rate (99±5% mortality at 9 hours, n=10, FIG. 3). Furthermore, the plasma levels of norepinephrine as well as the adrenochromes increased after LPS treatment (FIGS. 4a,b,c; n=10). Levels of the catecholamines and of the adrenochromes could not be evaluated at the 9 h timepoint (survival rate at this point was 1%, n=10).
# (FIG. 3; n=10). Inhibition of hypotension by M40403 was associated with increased levels of catecholamines (FIGS. 4a and b) and concommittant decrease (FIG. 4c; n=10) in plasma levels of the adrenochromes, the reaction products of O2^− and these catecholamines. In addition, when the administration of M40403 was postponed until 5 hours post LPS in this model the severe hypotensive phase of this condition was reversed (FIG. 3; n=10).
# When 15 mg/Kg of 5,10,15,20-tetrakis (2,4,6-trimethyl-3,5-disulfonatophenyl)-porphyrinato iron (III) (FeTMPS) was administered (i.v bolus injection 1 hour after LPS), the development of hypotension was prevented.
# [3] = system: O2− generated by hypoxanthine/xanthine oxidase (HX/XO); assay: Deactivation of catecholamines by hypoxanthine/xanthine oxidase superoxide generating system, HPLC detection; type: biochemical; conditions: HX 2 mM / XO 1 U/ml, n=6; for chemical detection of the catecholamines by HPLC after exposure to HX/XO: no SOD mimetic
# Description: Catecholamine measurements. Catecholamines in test tube samples or plasma samples were identified and quantified by high pressure liquid chromatography with electrochemical detection (HPLC-EC). The system consists of a Varian model 2510 solvent delivery system and a model 9090 autosampler (Varian, Walnut Creek, Calif.) coupled to a C18 column and an ESA Coulochem II detector. Separations were performed isocratically using a filtered and degassed mobile phase consisting of 10% methanol, 0.1 M sodium phosphate, 0.2 mM sodium octyl sulfate and 0.1 mM EDTA, adjusted to pH 2.8 with phosphoric acid. The HPLC system is coupled to a PS-90 computer with which chromatograms were recorded and analyzed with Varian Star workstation software.
# Hypoxanthine (HX;2 mM)/xanthine oxidase (XO; 1 U/ml) results in the generation of O2^− in the ratio of 2 molecules of O2^− to every one molecule of HX used.
# anaesthetized rat [4] = assay: Pressor effect of norepinephrine incubates on MAP in the anaesthetized rat; type: in vivo, Male Sprague Dawley rats; conditions: n=6
# Description: as §1
# Male Sprague Dawley rats (250-300 g, 6 rats per group) were anaesthetized and prepared according to the methods of Example 1. 0.5 mg/Kg of norepinephrine was administered as an intravenous (i.v) bolus injection through the left femoral vein. Animals in a control group received saline at the same volume and by the same route. The left femoral artery was cannulated and connected to a pressure transducer to allow for the monitoring of blood pressure during the experiment. The change in the blood pressure of the animals was compared to the blood pressure of animals in the control group. The results of the tests can be found in FIG. 1. Norepinephrine raised the MAP of the rats by 34±3.7 mmHg (FIG. 1b; n=6). […] When SOD mimetic M40403 was included with HX/XO in the incubation mixture, the vasopressor actions of were protected as shown by its ability to restore MAP back to near control values (38±3.6 mmHg) (FIG. 1b; n=6).
# [5] = Plasma catecholamine and adrenochrome concentrations after LPS; type: in vivo, Male Sprague Dawley rats; conditions: M40403 0.25 mg/Kg/h given at 1 h post LPS 4 mg/Kg i.v.; n=10
# Description: as §1, with “In experiments involving blood samples, such blood samples were withdrawn from the arterial cannula.” left out
# Catecholamine measurements. Catecholamines in test tube samples or plasma samples were identified and quantified by high pressure liquid chromatography with electrochemical detection (HPLC-EC). […] The HPLC system is coupled to a PS-90 computer with which chromatograms were recorded and analyzed with Varian Star workstation software.
# Adrenochrome measurements. The detection and quantification of the sum of the noradrenochrome and adrenochrome was carried out using an HPLC method utilising a Vydac C18 Pharmaceutical 4.6×250 mm column and with a 5% acetonitrile+95% SDS (10 mM) mobile phase (5 min elution), then 40% acetonitrile with 60% SDS plus 0.1% TFA (5 min elution) mobile phase, all eluted at […]. […]
compound,measurement,setting,value
"5,10,15,20-tetrakis (2,4,6-trimethyl-3,5-disulfonatophenyl)-porphyrinato iron (III) [FeTMPS]",hyporeactivity to exogenous norepinephrine after LPS,anaesthetized rat [1]; FeTMPS 15 mg/kg given at 1 h post LPS 4 mg/Kg,prevented; also recorded: reversed
same,reactivity to norepinephrine in saline treated rats,"anaesthetized rat [1]; FeTMPS, saline treated rats, n=6",not significantly affected
same,"fall in MAP after LPS, therapeutic treatment",anaesthetized rat [2]; FeTMPS 10 mg/Kg/h at 1 h post LPS 4 mg/Kg i.v. (FIG. 7),prevents
same,"fall in MAP after LPS, prophylactic treatment",anaesthetized rat [2]; FeTMPS 10 mg/Kg/h at 1 h post LPS 4 mg/Kg i.v. (FIG. 8),prevents
same,development of hypotension after LPS,anaesthetized rat [2]; FeTMPS 15 mg/Kg i.v. bolus injection 1 hour after LPS,prevented
[Cl-].[Cl-].[Mn+2].c1cc2nc(c1)CN[C@@H]1CCCC[C@H]1NCCN[C@@H]1CCCC[C@H]1NC2 [M40403],reduction of chemical detection (HPLC) of norepinephrine and epinephrine after incubation with HX/XO,"[3]; M40403 10^−6 M, incubation 5 min",prevented
same,ability of norepinephrine to increase MAP after incubation with HX/XO,"anaesthetized rat [4]; M40403 in the incubate, incubation 5 min, norepinephrine 0.5 mg/Kg bolus i.v.",preserved
same,increase in MAP by norepinephrine incubated with HX/XO plus M40403,"anaesthetized rat [4]; norepinephrine 0.5 mg/Kg i.v. bolus, M40403 included in HX/XO incubation mixture",38±3.6 mmHg
same,pressor responses to norepinephrine two hours after LPS,"anaesthetized rat [1]; M40403 0.25 mg/Kg, 15 min i.v. infusion 1 hour after LPS 4 mg/Kg, norepinephrine 0.1, 0.5 and 1 mg/Kg",restored
same,hyporeactivity to norepinephrine after LPS,"anaesthetized rat [1]; M40403 1 mg/Kg, LPS 4 mg/Kg, norepinephrine 0.1-1 mg/Kg, n=6",reversed
same,reactivity (pressor responses) to norepinephrine in rats not treated with LPS,"anaesthetized rat [1]; saline treated rats, M40403, n=6",unaffected; also recorded: not affected
same,fall in MAP (severe hypotensive phase) after LPS,"anaesthetized rat [2]; M40403 0.25 mg/Kg administered at 5 h post LPS 4 mg/Kg i.v., n=10",reverses
same,survival by 9 h,"anaesthetized rat [2]; M40403 0.25 mg/Kg/h i.v. infusion 1 hour post LPS 4 mg/Kg, n=10",99±2%
same,fall in MAP (development of hypotension) after LPS,"anaesthetized rat [2]; M40403 0.25 mg/Kg/h i.v. infusion from 1 h post LPS 4 mg/Kg i.v., n=10",prevents
same,plasma concentrations of adrenochromes versus LPS alone,[5],decrease; also recorded: significantly lower
same,plasma concentrations of epinephrine and norepinephrine versus LPS alone,[5],increased; also recorded: significantly higher
CNC[C@H](O)c1ccc(O)c(O)c1 [epinephrine],chemical detection of the catecholamines by HPLC after exposure to HX/XO,[3],significant decreases
"NC[C@H](O)c1ccc(O)c(O)c1 [norepinephrine, reference compound]",chemical detection of the catecholamines by HPLC after exposure to HX/XO,[3],significant decreases
same,increase in MAP by norepinephrine after incubation with HX/XO,"anaesthetized rat [4]; norepinephrine 0.5 mg/Kg i.v. bolus, incubated with HX/XO",17±2.5 mmHg
same,increase in MAP by norepinephrine,"anaesthetized rat [4]; norepinephrine 0.5 mg/Kg i.v. bolus, not incubated",34±3.7 mmHg

# From patent US20040132706A1, “Composition comprising a catalyst for the dismutation of superoxide and use of the composition for preventing and treating hypotension” (priority 2003, published 2004)
